The results in this text go back to ChEMBL document CHEMBL3045122, “Synthesis, in vitro antimicrobial, antiproliferative, and QSAR studies of N-(substituted phenyl)-2/4-(1H-indol-3-ylazo)-benzamides” (Med Chem Res, 2013).

The structures appear in SMILES notation.

Test [1] relates to HCT-116. Description: Cytotoxicity against Homo sapiens (human) HCT116 cells assessed as growth inhibition after 72 hr by MTT assay. Type of test: functional, cell-based.
The subject of test [2] is Escherichia coli. Description: Antibacterial activity against Escherichia coli assessed as growth inhibition after 24 hr by tube dilution method. In kind it is functional.
Test [3] relates to Bacillus subtilis. Description: Antibacterial activity against Bacillus subtilis assessed as growth inhibition after 24 hr by tube dilution method. Type of test: functional.
Test [4] concerns HCT-116. Description: Ratio of 5-Fluorouracil IC50 to compound IC50 for Homo sapiens (human) HCT116 cells. In kind it is functional.
Test [5] relates to Candida albicans. Description: Fungicidal activity against Candida albicans. Type of test: functional.
The test system of test [6] is P388. Description: Cytotoxicity against Mus musculus (mouse) P388 cells assessed as growth inhibition after 72 hr by MTT assay. In kind it is functional, cell-based. (In general: Tetrazolium assays rely on reduction of a dye to a coloured formazan, in cell work by metabolically active cells.)
The subject of test [7] is Staphylococcus aureus. The test can be described thus: Antibacterial activity against Staphylococcus aureus assessed as growth inhibition after 24 hr by tube dilution method. In kind it is functional.
Test [8] relates to Candida albicans. Description: Antifungal activity against Candida albicans assessed as growth inhibition after 48 hr by tube dilution method. Type of test: functional.
The test system of test [9] is Staphylococcus aureus. The test can be described thus: Ratio of MBC to MIC for Staphylococcus aureus. In kind it is functional.
Test [10] deals with Aspergillus niger. Description: Ratio of MFC to MIC for Aspergillus niger. In kind it is functional.
Test [11] deals with Bacillus subtilis. The test can be described thus: Ratio of MBC to MIC for Bacillus subtilis. In kind it is functional.
The subject of test [12] is Escherichia coli. The test can be described thus: Bactericidal activity against Escherichia coli. Type of test: functional.
The test system of test [13] is P388. Description: Ratio of 5-Fluorouracil IC50 to compound IC50 for Mus musculus (mouse) P388 cells. In kind it is functional.
Test [14] concerns Staphylococcus aureus. The test can be described thus: Bactericidal activity against Staphylococcus aureus. In kind it is functional.
Test [15] has as its system MCF7. The test can be described thus: Cytotoxicity against Homo sapiens (human) MCF7 cells assessed as growth inhibition after 72 hr by MTT assay. Type of test: functional, cell-based.
Test [16] has as its system Aspergillus niger. The test can be described thus: Antifungal activity against Aspergillus niger assessed as growth inhibition after 7 days by tube dilution method. Type of test: functional.
Test [17] relates to Candida albicans. The test can be described thus: Ratio of MFC to MIC for Candida albicans. In kind it is functional.
In test [18] the test system is Aspergillus niger. The test can be described thus: Fungicidal activity against Aspergillus niger. In kind it is functional.
In test [19] the test system is Bacillus subtilis. The test can be described thus: Bactericidal activity against Bacillus subtilis. In kind it is functional.
Test [20] concerns Escherichia coli. The test can be described thus: Ratio of MBC to MIC for Escherichia coli. In kind it is functional.

For `Cc1ccc(NC(=O)c2ccc(/N=N\c3c[nH]c4ccccc34)cc2)cc1`, the figures for the IC50 in test [1], in test [6] and in test [15] were 0.0254 uM/ml, 0.0003 uM/ml and 0.0424 uM/ml, respectively. For the same compound, the “-logMIC” value in [2], in test [3], in test [7], in test [8] and in test [16] was 1.45 in each case. Also, the “Ratio IC50” value amounted to 1.8 in test [4] and 73 in test [13]. Besides, the MFC is over 0.14 uM/ml in [5] and 0.04 uM/ml in test [18]. Besides, the Ratio in [9], in test [10], in test [11], in test [17] and in [20] was 3 in each case. Further, the MBC in test [12], in [14] and in [19] was over 0.14 uM/ml in each case.
